Assay results from ChEMBL document CHEMBL3751817, “Anti-HIV-1 activity of a tripodal receptor that recognizes mannose oligomers” (Eur J Med Chem, 2015).
Activity calls are given as the source filed them. The calls are words filed in the database; no cut-off is given here.

Experiments:
[1] = system: Human immunodeficiency virus 1; assay: Antiviral activity against HIV1 3B infected in human CD4+ T-lymphocyte CEM cells assessed as inhibition of virus-induced cytopathicity after 4 to 5 days by microscopic analysis; assay type: functional, organism-based; details: Human immunodeficiency virus 1, 3B, CCRF-CEM
CCRF-CEM = assay: Cytotoxicity against human CD4+ T-lymphocyte CEM cells; assay type: cell-based
[2] = system: Human immunodeficiency virus 2; assay: Antiviral activity against HIV2 ROD infected in human CD4+ T-lymphocyte CEM cells assessed as inhibition of virus-induced cytopathicity after 4 to 5 days by microscopic analysis; assay type: functional, organism-based; details: Human immunodeficiency virus 2, ISOLATE ROD, CCRF-CEM
[3] = Inhibition of HIV integrase-mediated strand transfer activity using precleaved 19T duplex oligonucleotide after 2 hrs; design: species or system Human immunodeficiency virus
[4] = Inhibition of HIV integrase-mediated 3'-processing activity using 5'-[gamma-32P]-labeled full length 21T DNA after 2 hrs; design: species or system Human immunodeficiency virus
[5] = system: Human immunodeficiency virus 1; assay: Binding affinity to recombinant HIV1 3B glycoprotein-120 after 5 mins by sensorchip reverse surface plasmon resonance assay
[6] = system: Human immunodeficiency virus 1; assay: Binding affinity to recombinant HIV1 3B glycoprotein-120 after 5 mins by sensorchip direct surface plasmon resonance assay
[7] = system: Human immunodeficiency virus 1; assay: Binding affinity to recombinant HIV1 3B glycoprotein-120 at 5 uM after 5 mins by sensorchip direct surface plasmon resonance assay in presence of 100 and 400 uM mann (alpha-1,3-1,6)3
[8] = system: Human immunodeficiency virus 1; assay: Binding affinity to recombinant HIV1 3B glycoprotein-120 at 5 uM after 5 mins by sensorchip direct surface plasmon resonance assay in presence of 100 and 400 uM mann (alpha-1,2)3
[9] = system: Human immunodeficiency virus; assay: Inhibition of HIV integrase-mediated strand transfer activity using 5'-[gamma-32P]-labeled full length 21T DNA at 50 nM after 2 hrs

Row | SMILES | EC50 [1] [µM] | CC50 (CCRF-CEM) [µM] | EC50 [2] [µM] | other results
1 | CN[C@@H]1[C@H](O[C@@H]2OC[C@@H](O)[C@H](O)[C@H]2O)[C@@H](O)[C@H](O[C@H]2c3cc(C)c(C(=O)N[C@H](C)C(=O)O)c(O)c3-c3c(cc4c(c3O)C(=O)c3cc(OC)cc(O)c3C4=O)[C@@H]2O)O[C@@H]1C [PRADIMICIN A] | 3.4 | > 50 | – | –
2 | CCc1c(CNC(=O)c2ccc(N)nc2)c(CC)c(CNC(=O)c2ccc(N)nc2)c(CC)c1CNC(=O)c1ccc(N)nc1 | > 250 | > 250 | > 250 | –
3 | CCc1c(CNC(=O)c2cc(O)c(O)c(O)c2)c(CC)c(CNC(=O)c2cc(O)c(O)c(O)c2)c(CC)c1CNC(=O)c1cc(O)c(O)c(O)c1 | > 10 | 49 | > 10 | –
4 | CCc1c(CNC(=O)c2c(O)cc(O)cc2O)c(CC)c(CNC(=O)c2c(O)cc(O)cc2O)c(CC)c1CNC(=O)c1c(O)cc(O)cc1O | > 50 | 112 | > 50 | –
5 | CCc1c(CNCCCCNC(=O)c2ccc(O)c(O)c2O)c(CC)c(CNCCCCNC(=O)c2ccc(O)c(O)c2O)c(CC)c1CNCCCCNC(=O)c1ccc(O)c(O)c1O | > 10 | 25 | > 10 | –
6 | CCc1c(CN2CCN(C(=O)c3ccc(O)c(O)c3O)CC2)c(CC)c(CN2CCN(C(=O)c3ccc(O)c(O)c3O)CC2)c(CC)c1CN1CCN(C(=O)c2ccc(O)c(O)c2O)CC1 | > 10 | 36 | > 10 | IC50 [3]: 5.6 µM; IC50 [4]: 42 µM
7 | CCc1c(CNC(=O)CCc2ccc(O)c(O)c2)c(CC)c(CNC(=O)CCc2ccc(O)c(O)c2)c(CC)c1CNC(=O)CCc1ccc(O)c(O)c1 | > 10 | 22 | > 10 | –
8 | CCc1c(CNC(=O)CCC(=O)NCCCOCCOCCOCCCN)c(CC)c(CNC(=O)c2ccc(O)c(O)c2O)c(CC)c1CNC(=O)c1ccc(O)c(O)c1O | – | – | – | Activity [5]: Active
9 | CCc1c(CNCCNC(=O)c2ccc(O)c(O)c2O)c(CC)c(CNCCNC(=O)c2ccc(O)c(O)c2O)c(CC)c1CNCCNC(=O)c1ccc(O)c(O)c1O | > 10 | 117 | > 10 | –
10 | CN[C@H]1[C@@H](O[C@H]2O[C@@H](CO)[C@H](O)[C@@H](OS(=O)(=O)O)[C@@H]2O)[C@H](O)[C@@H](O[C@H]2c3cc(C)c(C(=O)N[C@H](C)C(=O)O)c(O)c3-c3c(cc4c(c3O)C(=O)c3cc(OC)cc(O)c3C4=O)[C@@H]2O)O[C@H]1C | – | – | – | Activity [6]: Active
11 | CCc1c(CNC(=O)c2ccc[nH]2)c(CC)c(CNC(=O)c2ccc[nH]2)c(CC)c1CNC(=O)c1ccc[nH]1 | > 10 | > 10 | > 10 | –
12 | CCc1c(CNC(=O)c2ccc(O)cc2O)c(CC)c(CNC(=O)c2ccc(O)cc2O)c(CC)c1CNC(=O)c1ccc(O)cc1O | > 4 | 28 | > 4 | –
13 | CCc1c(CNC(=O)c2ccc(O)c(O)c2O)c(CC)c(CNC(=O)c2ccc(O)c(O)c2O)c(CC)c1CNC(=O)c1ccc(O)c(O)c1O | 6.3 | 144 | 41 | Activity [6]: Active; IC50 [3]: 10.9 µM; Activity [7]: inactive; IC50 [4]: 31 µM; Activity [8]: inactive
14 | CCc1c(CNC(=O)c2ccc(N)cc2)c(CC)c(CNC(=O)c2ccc(N)cc2)c(CC)c1CNC(=O)c1ccc(N)cc1 | > 250 | > 250 | > 250 | –
15 | CCc1c(CNC(=O)c2ccc(O)c(O)c2O)c(CC)c(CNC(=O)[C@H]2C[C@@H](C(=O)NCc3c(CC)c(CNC(=O)c4ccc(O)c(O)c4O)c(CC)c(CNC(=O)c4ccc(O)c(O)c4O)c3CC)C[C@@H](C(=O)NCc3c(CC)c(CNC(=O)c4ccc(O)c(O)c4O)c(CC)c(CNC(=O)c4ccc(O)c(O)c4O)c3CC)C2)c(CC)c1CNC(=O)c1ccc(O)c(O)c1O | > 10 | 25 | > 10 | –
16 | CCc1c(CNC(=O)C2C[C@H](O)C(O)[C@@H](O)C2)c(CC)c(CNC(=O)C2C[C@H](O)C(O)[C@@H](O)C2)c(CC)c1CNC(=O)C1C[C@H](O)C(O)[C@@H](O)C1 (some centres not stated) | > 250 | > 250 | > 250 | –
17 | C[C@@H]1CCO[C@H]2Cn3cc(C(=O)NCc4ccc(F)cc4F)c(=O)c(O)c3C(=O)N12 | – | – | – | inhibition [9]: > 50%
18 | CCc1c(CNC(=O)C2=C[C@H](O)[C@H](O)[C@@H](O)C2)c(CC)c(CNC(=O)C2=C[C@H](O)[C@H](O)[C@@H](O)C2)c(CC)c1CNC(=O)C1=C[C@H](O)[C@H](O)[C@@H](O)C1 | > 250 | > 250 | > 250 | –
19 | CCc1c(CNC(=O)c2cccc(O)c2O)c(CC)c(CNC(=O)c2cccc(O)c2O)c(CC)c1CNC(=O)c1cccc(O)c1O | > 2 | 5 | > 2 | –
